Our source for the MIC values is US20050061967A1, “Pattern recognition of whole cell mass spectra” (priority 2003, published 2005).

Molecules are shown by their SMILES. Some results are limits rather than exact numbers.

Test in all cases: MIC of antibiotics, antibiotic resistance profile of Salmonella enterica isolates
Format in all cases: cell-based

The subject of assay [1] is Salmonella enterica serotype Muenster isolates. From the text:
(§1) To identify charge state of each ion cluster, we performed the following analyses on twenty-nine Salmonella enterica isolates (21 of serotype Heidelberg, 3 Anatum, 3 Worthington and 2 Muenster) from a turkey production environment. From the high mass end of the spectrum, we divided each ion peak by 2 or 3, look there for a corresponding peak. Ions at small integer dividends are then tabulated together with the largest, assumed to be a+1 charge state. Based on the assigned charge state, sum intensities (in the raw spectra) arising from nearby adducts or losses were calculated at their charge-state-predicted interval. The total around each same-charge-state cluster were added to the total for the same biomarker at its other identified charge states. Spectra were smoothed, the background was subtracted and then peaks were detected. Deconvolution was based on peaks at least 3% intensity of the base peak.
(§2) The Salmonella enterica isolates were also typed by their antibiotic resistance and Pulsed-Field Gel Electrophoresis (PFGE) patterns. The isolates'=0 resistance profile, a common and obviously important phenotypic assay, was determined for twenty antibiotics commonly used in veterinary medicine to control Salmonella infections. PFGE is the most common and widely accepted genotypic method currently in use. The PFGE patterns were analyzed by statistical pattern recognition to produce a dendrogram in which similar gel patterns are clustered so that they appear in or near the same branch of a similarity “tree.” Then the two types of mass spectra for the same twenty-nine samples, under several variations, were also evaluated by pattern recognition.

For assay [2], the system named is Salmonella enterica serotype Worthington isolates.
Description: as §1, §2

For assay [3], the system named is Salmonella enterica serotype Heidelberg isolates. How it is done: as §2
Assay [4] deals with Salmonella enterica serotype Anatum isolates.
Description: as §1, §2

[5] abbreviates: 29th of 29 isolates (ID printed 9).
[6] abbreviates: 6th of 29 isolates (ID cell blank).
[7] abbreviates: 9th of 29 isolates (ID cell blank).
Where [8] appears, read: 7th of 29 isolates (ID cell blank).
Setting [9] is: 18th of 29 isolates (ID printed 8).
Setting [10] is: 22nd of 29 isolates (ID printed 2).
Where [11] appears, read: 1st of 29 isolates (ID cell blank), turkey production environment.
[12] abbreviates: 2nd of 29 isolates (ID cell blank).
The mark [13] stands for this setting: 3rd of 29 isolates (ID cell blank).

`CC[C@H]1OC(=O)[C@H](C)[C@@H](O[C@H]2C[C@@](C)(OC)[C@@H](O)[C@H](C)O2)[C@H](C)[C@@H](O[C@@H]2O[C@H](C)C[C@H](N(C)C)[C@H]2O)[C@](C)(O)C[C@@H](C)C(=O)[C@H](C)[C@@H](O)[C@]1(C)O` [Er]: the minimum inhibitory concentration (MIC) in assay [1] (28th of 29 isolates (ID printed 8)) was 512 µg/mL; in assay [1] (setting [5]) it was 32 µg/mL; in assay [2] (26th of 29 isolates (ID 6)), 64 µg/mL; in assay [3] (4th of 29 isolates (ID cell blank)), 512 µg/mL; in assay [3] (setting [6]), above 512 µg/mL; in assay [3] (8th of 29 isolates (ID cell blank)), 512 µg/mL. Further, the minimal inhibitory concentration (MIC) in assay [3] (setting [7]), in assay [3] (10th of 29 isolates (ID 0)), in assay [3] (11th of 29 isolates (ID 1)), in assay [3] (13th of 29 isolates (ID 3)), in assay [3] (14th of 29 isolates (ID 4)) and in assay [3] (15th of 29 isolates (ID 5)) was 512 µg/mL each time. Further, in assay [3] (20th of 29 isolates (ID 0)), the MIC worked out at 512 µg/mL.

As for `CN[C@@H]1[C@H](O)[C@H](NC)[C@H]2O[C@@]3(O)C(=O)C[C@@H](C)O[C@H]3O[C@@H]2[C@H]1O` [Spt], the minimum inhibitory concentration (MIC) in assay [3] (setting [6]), in assay [3] (setting [8]), in assay [3] (setting [7]), in assay [3] (10th of 29 isolates (ID 0)), in assay [3] (11th of 29 isolates (ID 1)) and in assay [3] (13th of 29 isolates (ID 3)) was above 512 µg/mL in each case. Moreover, the minimum inhibitory concentration (MIC) in assay [3] (14th of 29 isolates (ID 4)), in assay [3] (15th of 29 isolates (ID 5)), in assay [3] (16th of 29 isolates (ID 6)), in assay [3] (setting [9]), in assay [3] (20th of 29 isolates (ID 0)) and in assay [3] (21st of 29 isolates (ID 1)) was above 512 µg/mL in each case. For the same compound, the minimal inhibitory concentration (MIC) in assay [3] (setting [10]) and in assay [3] (24th of 29 isolates (ID 4)) was above 512 µg/mL in each case.

As for `CN[C@@H]1[C@H](O[C@H]2[C@H](O[C@H]3[C@H](O)[C@@H](O)[C@H](N=C(N)N)[C@@H](O)[C@@H]3N=C(N)N)O[C@@H](C)[C@]2(O)C=O)O[C@@H](CO)[C@H](O)[C@H]1O` [St], the MIC in assay [1] (setting [5]) was above 256 µg/mL; in assay [4] (setting [11]), 256 µg/mL; in assay [4] (setting [12]), 256 µg/mL; in assay [4] (setting [13]), 256 µg/mL; in assay [3] (setting [6]) it was above 256 µg/mL; in assay [3] (setting [8]) it was above 256 µg/mL. Further, the minimal inhibitory concentration (MIC) in assay [3] (setting [7]), in assay [3] (10th of 29 isolates (ID 0)), in assay [3] (11th of 29 isolates (ID 1)), in assay [3] (13th of 29 isolates (ID 3)), in assay [3] (14th of 29 isolates (ID 4)) and in assay [3] (15th of 29 isolates (ID 5)) was above 256 µg/mL throughout. Besides, the minimum inhibitory concentration (MIC) in assay [3] (16th of 29 isolates (ID 6)), in assay [3] (setting [9]), in assay [3] (20th of 29 isolates (ID 0)), in assay [3] (21st of 29 isolates (ID 1)), in assay [3] (setting [10]) and in assay [3] (24th of 29 isolates (ID 4)) was above 256 µg/mL in each case.

For `CN(C)C1C(O)=C(C(N)=O)C(=O)C2(O)C(O)=C3C(=O)c4c(O)cccc4C(C)(O)C3CC12` (stereo not drawn) [Te], the MIC in assay [4] (setting [11]) amounted to 512 µg/mL; in assay [4] (setting [12]), 256 µg/mL; in assay [4] (setting [13]), 256 µg/mL; in assay [2] (17th of 29 isolates (ID printed 7)), 32 µg/mL; in assay [2] (26th of 29 isolates (ID 6)), 32 µg/mL; in assay [2] (27th of 29 isolates (ID printed 7)) it was 32 µg/mL. Moreover, the minimum inhibitory concentration (MIC) in assay [3] (5th of 29 isolates (ID cell blank)) turned out to be 128 µg/mL; in assay [3] (10th of 29 isolates (ID 0)), 256 µg/mL; in assay [3] (24th of 29 isolates (ID 4)), 256 µg/mL.

As usually defined, the MIC is the lowest concentration that inhibits growth of the organism.
